In US20140323296A1, “Pesticide Compositions and Methods for Their Use” (priority 2004, published 2014):
Like-named read-outs stand apart in the source and are kept apart here.

Tests used:
Settings in all cases: in vivo
[1] = test system: tomato plants (Lycopersicon esculentum var. Celebrity Hybrid, NK)
Procedure: In general, tomato plants were contacted with three different treatment formulations: (1) the clorothalonil fungicide BRAVO WEATHER STIK with water and surfactant, (2) a fungicide phytotoxicity reducing formulation according to the subject invention, i.e., BRAVO WEATHER STIK/water/sucrose/surfactant, and (3) sucrose/water. An untreated control was also evaluated.
1) Seven week old potted tomato plants (Lycopersicon esculentum var. Celebrity Hybrid, NK) 2) Clorothalonil 47% a.i. (BRAVO WEATHER STIK) made up in a concentration equivalent to 2 pints per 100 gallons water+Organosilicone Surfactant (SILWET L-77) at 3 oz per 100 gallons 3) BRAVO WEATHER STIK at 2 pints per 100 gallons spray mix+SILWET L-77 at 3 oz per 100 gallons+Sucrose at 25 lbs per 100 gallons 4) Sucrose at 25 lbs per 100 gallons+SILWET L-77 at 3 oz per 100 gallons

[2] = test system: Mung Bean plants (Phaseolus aureus); test: IB mitigation of bactericide-fungicide phytotoxicity: KOCIDE with or without sucrose sprayed on potted mung bean plants, leaf russeting, vigor and appearance rating
Procedure: In general, mung bean plants were contacted with three different treatment formulations: (1) the copper hydroxide bactericide-fungicide KOCIDE with water and surfactant, (2) a bactericide-fungicide phytotoxicity reducing formulation according to the subject invention, i.e., KOCIDE/water/sucrose/surfactant, and (3) sucrose/water. An untreated control was also evaluated.
1) Three week old potted Mung Bean plants (Phaseolus aureus) 2) Copper Hydroxide 20% a.i. (KOCIDE) made up in a concentration equivalent to 10 lbs per 100 gallons spray mix+Organosilicone Surfactant (SILWET L-77) at 3 oz per 100 gallons 3) KOCIDE at 10 lbs per 100 gallons spray mix+Sucrose at 25 lbs per 100 gallons+SILWET L-77 at 3 oz per 100 gallons 4) Sucrose at 25 lbs per 100 gallons+SILWET L-77 at 3 oz per 100 gallons

[3] = test system: tomato plants (Lycopersicon esculentum var. Celebrity Hybrid, NK); test: ID mitigation of fungicide phytotoxicity: ORBIT with or without sucrose sprayed on potted tomato plants, vigor, leaf distortion and appearance rating
Procedure: In general, tomato plants were contacted with three different treatment formulations: (1) the propiconazole fungicide ORBIT with water and surfactant, (2) a fungicide phytotoxicity reducing formulation according to the subject invention, i.e., ORBIT/water/sucrose/surfactant, and (3) sucrose/water. An untreated control was also evaluated.
1) Nine week old potted tomato plants (Lycopersicon esculentum var. Celebrity Hybrid, NK) 2) Propiconazole 41.8% a.i. (ORBIT) made up in a concentration equivalent to 12 oz per 100 gallons water+Organosilicone Surfactant (SILWET L-77) at 3 oz per 100 gal 3) ORBIT at 12 oz per 100 gallons spray mix+SILWET L-77 at 3 oz per 100 gallons+Sucrose at 25 lbs per 100 gallons 4) Sucrose at 25 lbs per 100 gallons+SILWET L-77 at 3 oz per 100 gallons

[4] = test system: tomato plants (Lycopersicon esculentum var. Celebrity Hybrid, NK); test: IA mitigation of insecticide phytotoxicity: KRYOCIDE with or without sucrose sprayed on potted tomato plants, vigor and appearance rating
Procedure: In general, tomato plants were contacted with three different treatment formulations: (1) the sodium aluminofluoride insecticide KRYOCIDE with water and surfactant, (2) an insecticide phytotoxicity reducing formulation according to the subject invention, i.e., KRYOCIDE/water/sucrose/surfactant, and (3) sucrose/water. An untreated control was also evaluated.
1) Nine week old potted tomato plants (Lycopersicon esculentum var. Celebrity Hybrid, NK) 2) Sodium Aluminofluoride 96% a.i. (KRYOCIDE) made up in a concentration equivalent to 15 lbs per 100 gallons water+Organosilicone Surfactant (Silwet L-77) at 3 oz per 100 gallons 3) KRYOCIDE at 15 lbs per 100 gallons spray mix+SILWET L-77 at 3 oz per 100 gallons spray mix+Sucrose at 25 lbs per 100 gallons spray mix 4) Sucrose at 25 lbs per 100 gallons spray mix+SILWET L-77 at 3 oz per 100 gallons

Compound	overall vigor and appearance, Mean/Statistical Rank [1]	overall vigor and appearance, Replication 1 [1]	overall vigor and appearance, Replication 2 [1]	overall vigor and appearance, Replication 3 [1]	overall vigor and appearance, Replication 4 [1]	russeting of leaves and overall vigor and appearance, Mean/Statistical Rank [2]	russeting of leaves and overall vigor and appearance, Replication 1 [2]	russeting of leaves and overall vigor and appearance, Replication 2 [2]	russeting of leaves and overall vigor and appearance, Replication 3 [2]	russeting of leaves and overall vigor and appearance, Replication 4 [2]	overall vigor, leaf distortion and appearance, Mean/Statistical Rank [3]	overall vigor, leaf distortion and appearance, Replication 1 [3]	overall vigor, leaf distortion and appearance, Replication 2 [3]	overall vigor, leaf distortion and appearance, Replication 3 [3]	overall vigor, leaf distortion and appearance, Replication 4 [3]	overall vigor and appearance, Mean/Statistical Rank [4]	overall vigor and appearance, Replication 1 [4]	overall vigor and appearance, Replication 2 [4]	overall vigor and appearance, Replication 3 [4]	overall vigor and appearance, Replication 4 [4]
Clorothalonil [BRAVO WS]	5.25 a	5	5	6	5															
OC[C@H]1O[C@@](CO)(O[C@H]2O[C@H](CO)[C@@H](O)[C@H](O)[C@H]2O)[C@@H](O)[C@@H]1O [Sucrose]	10.00 b	10	10	10	10	10.00 b	10	10	10	10	10.00 c	10	10	10	10	9.75 b	10	9	10	10
